Experimental data from PubChem BioAssay AID256 (DTP/NCI, 2004).
Where “and” joins values, the source holds several entries; their conditions need not be identical. Equal entries are not always repeated. Toxic doses and inconclusive results are not listed.

System: CD2F1 mice, L1210 leukemia ip, survival T/C
Test: NCI In Vivo Anticancer Drug Screen. Data for tumor model L1210 Leukemia (intraperitoneal) in CD2F1 (CDF1) mice
Conditions: higher = longer survival
In short: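 Each value reflects a quotient of treated over vehicle control outcomes in mice with a transplanted tumor.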

[1] = endpoint: mean survival time, dose: 100.0 mg/kg/injection, schedule: Q01DX001 (ip), vehicle: saline
[2] = endpoint: mean survival time, dose: 200.0 mg/kg/injection, schedule: Q01DX001 (ip), vehicle: saline
[3] = endpoint: mean survival time, dose: 100.0 mg/kg/injection, schedule: Q04DX003 (ip), vehicle: saline with Tween-80
[4] = endpoint: mean survival time, dose: 200.0 mg/kg/injection, schedule: Q04DX003 (ip), vehicle: saline with Tween-80
[5] = endpoint: mean survival time, dose: 400.0 mg/kg/injection, schedule: Q04DX003 (ip), vehicle: saline with Tween-80
[6] = endpoint: mean survival time, dose: 100.0 mg/kg/injection, schedule: Q04DX003 (ip), vehicle: saline
[7] = endpoint: mean survival time, dose: 200.0 mg/kg/injection, schedule: Q04DX003 (ip), vehicle: saline
[8] = endpoint: mean survival time, dose: 12.5 mg/kg/injection, schedule: Q01DX009 (ip), vehicle: saline with Tween-80
[9] = endpoint: mean survival time, dose: 25.0 mg/kg/injection, schedule: Q01DX009 (ip), vehicle: saline with Tween-80
[10] = endpoint: mean survival time, dose: 50.0 mg/kg/injection, schedule: Q01DX009 (ip), vehicle: saline with Tween-80
[11] = endpoint: mean survival time, dose: 100.0 mg/kg/injection, schedule: Q01DX009 (ip), vehicle: saline with Tween-80
[12] = endpoint: mean survival time, dose: 200.0 mg/kg/injection, schedule: Q01DX009 (ip), vehicle: saline with Tween-80

For `CN(C)S(=O)(=O)c1ccccc1C(=O)O`, the T/C (endpoint: mean survival time, dose: 100.0 mg/kg/injection, schedule: Q04DX003 (ip), vehicle: saline sonified) was 100 % of control, the T/C (endpoint: mean survival time, dose: 200.0 mg/kg/injection, schedule: Q04DX003 (ip), vehicle: saline sonified) was 100 % of control and the T/C (endpoint: mean survival time, dose: 400.0 mg/kg/injection, schedule: Q04DX003 (ip), vehicle: saline sonified) was 93 % of control.

In the case of `N/N=C\C(=N/N)C(O)C(O)C(O)CO` (configuration not stated), the T/C (endpoint: mean survival time, dose: 100.0 mg/kg/injection, schedule: Q01DX001 (ip), vehicle: saline with Tween-80) is reported as 87 % of control.

In the case of `CCCc1cc(C(C)=O)c[n+](C2OC(COC(C)=O)C(OC(C)=O)C(OC(C)=O)C2OC(C)=O)c1` (configuration not stated), the T/C (endpoint: mean survival time, dose: 3.13 mg/kg/injection, schedule: Q01DX005 (ip), vehicle: water) is reported as 107 % of control, the T/C (endpoint: mean survival time, dose: 6.25 mg/kg/injection, schedule: Q01DX005 (ip), vehicle: water) is reported as 100 % of control and the T/C (endpoint: mean survival time, dose: 12.5 mg/kg/injection, schedule: Q01DX005 (ip), vehicle: water) is reported as 104 % of control. For the same compound, the T/C (endpoint: mean survival time, dose: 25.0 mg/kg/injection, schedule: Q01DX005 (ip), vehicle: water) was 109 % of control and the T/C (endpoint: mean survival time, dose: 50.0 mg/kg/injection, schedule: Q01DX005 (ip), vehicle: water) was 95 % of control.

With `O=C(Nc1ccccn1)OCc1ccccc1` the T/C (endpoint: mean survival time, dose: 100.0 mg/kg/injection, schedule: Q04DX002 (ip), vehicle: saline with Tween-80) was 112 % of control, the T/C (endpoint: mean survival time, dose: 200.0 mg/kg/injection, schedule: Q04DX002 (ip), vehicle: saline with Tween-80) was 101 % of control and the T/C (endpoint: mean survival time, dose: 400.0 mg/kg/injection, schedule: Q04DX002 (ip), vehicle: saline with Tween-80) was 97 % of control.

`COC1=CC=C2[C@@H]3Cc4ccc(OC)c5c4[C@]2(CCN3CCCl)C1O5` (some centres not stated) was tested, and the T/C (endpoint: mean survival time, dose: 25.0 mg/kg/injection, schedule: Q04DX003 (ip), vehicle: DMSO) was 107 % of control, the T/C (endpoint: mean survival time, dose: 50.0 mg/kg/injection, schedule: Q04DX003 (ip), vehicle: DMSO) was 104 % of control and the T/C (endpoint: mean survival time, dose: 100.0 mg/kg/injection, schedule: Q04DX003 (ip), vehicle: DMSO) was 102 % of control.

`CCC(/C=N\O)CC` was tested, and the T/C [1] was 100 % of control and the T/C [2] was 108 % of control.

With `O/N=C/c1cccc(CC(O)(C(F)(F)F)C(F)(F)F)n1` the T/C [3] was 97 % of control, the T/C [4] was 95 % of control and the T/C [5] was 95 % of control.

`CO[C@@H]1C2=CC=CC=C[C@H]2n2c(=O)n(C)c(=O)n21` was tested, and the T/C (endpoint: median survival time, dose: 37.5 mg/kg/injection, schedule: Q01DX005 (ip), vehicle: other) was 95 % of control, the T/C (endpoint: median survival time, dose: 75.0 mg/kg/injection, schedule: Q01DX005 (ip), vehicle: other) was 100 % of control and the T/C (endpoint: median survival time, dose: 150.0 mg/kg/injection, schedule: Q01DX005 (ip), vehicle: other) was 95 % of control.

For `Cc1c2c(cc3c1CCC1(C)C3CCC1C(C)CCC(C)C(C)C)CC(O)CC2` (configuration not stated), the T/C (endpoint: mean survival time, dose: 75.0 mg/kg/injection, schedule: Q01DX001 (ip), vehicle: saline with Tween-80) was 92 % of control, the T/C (endpoint: mean survival time, dose: 150.0 mg/kg/injection, schedule: Q01DX001 (ip), vehicle: saline with Tween-80) was 90 % of control and the T/C (endpoint: mean survival time, dose: 300.0 mg/kg/injection, schedule: Q01DX001 (ip), vehicle: saline with Tween-80) was 90 % of control.

In the case of `O=C(O)c1c2c(nc3ccccc13)-c1ccccc1C1(CCCC1)C2`, the T/C [3] is reported as 92 % of control and the T/C [4] is reported as 99 % of control.

`CC1OC(C)(C)OC1C(=O)OCc1ccccc1` (configuration not stated) was tested, and the T/C (endpoint: mean survival time, dose: 25.0 mg/kg/injection, schedule: Q01DX009 (ip), vehicle: Klucel (hydroxypropylcellulose) (HPC)) was 96 % of control, the T/C (endpoint: mean survival time, dose: 50.0 mg/kg/injection, schedule: Q01DX009 (ip), vehicle: Klucel (hydroxypropylcellulose) (HPC)) was 93 % of control and the T/C (endpoint: mean survival time, dose: 100.0 mg/kg/injection, schedule: Q01DX009 (ip), vehicle: Klucel (hydroxypropylcellulose) (HPC)) was 99 % of control. The T/C (endpoint: mean survival time, dose: 200.0 mg/kg/injection, schedule: Q01DX009 (ip), vehicle: Klucel (hydroxypropylcellulose) (HPC)) was 94 % of control and the T/C (endpoint: mean survival time, dose: 400.0 mg/kg/injection, schedule: Q01DX009 (ip), vehicle: Klucel (hydroxypropylcellulose) (HPC)) was 99 % of control.

For `CC(=O)C1CCC2C3CC=C4CC(SC(=N)N)CCC4(C)C3CCC12C` (configuration not stated), the T/C (endpoint: mean survival time, dose: 75.0 mg/kg/injection, schedule: Q01DX001 (ip), vehicle: steriod suspending solution) was 102 % of control, the T/C (endpoint: mean survival time, dose: 150.0 mg/kg/injection, schedule: Q01DX001 (ip), vehicle: steriod suspending solution) was 104 % of control and the T/C (endpoint: mean survival time, dose: 300.0 mg/kg/injection, schedule: Q01DX001 (ip), vehicle: steriod suspending solution) was 91 % of control.

For `Cc1cc(=O)[nH]c(O)c1C#N`, the T/C [3] was 96 % of control, the T/C [4] was 94 % of control and the T/C [5] was 94 % of control.

With `[CH3][Sn]1([CH3])[O]C2C(CO)OC(n3ccc(N)nc3=O)C2[O]1` (configuration not stated) the T/C (endpoint: mean survival time, dose: 12.5 mg/kg/injection, schedule: Q01DX005 (ip), vehicle: other) was 103 % of control, the T/C (endpoint: mean survival time, dose: 25.0 mg/kg/injection, schedule: Q01DX005 (ip), vehicle: other) was 92 % of control and the T/C (endpoint: mean survival time, dose: 50.0 mg/kg/injection, schedule: Q01DX005 (ip), vehicle: other) was 106 % of control.

With `C[As](C)SCC1OC(n2ccc(=O)[nH]c2=O)CC1O` (configuration not stated) the T/C (endpoint: median survival time, dose: 12.5 mg/kg/injection, schedule: Q01DX005 (ip), vehicle: distilled water + Tween-80) was 97 % of control, the T/C (endpoint: median survival time, dose: 25.0 mg/kg/injection, schedule: Q01DX005 (ip), vehicle: distilled water + Tween-80) was 104 % of control and the T/C (endpoint: median survival time, dose: 50.0 mg/kg/injection, schedule: Q01DX005 (ip), vehicle: distilled water + Tween-80) was 106 % of control. For the same compound, the T/C (endpoint: median survival time, dose: 100.0 mg/kg/injection, schedule: Q01DX005 (ip), vehicle: distilled water + Tween-80) was 109 % of control.

In the case of `CC(C)(C(=O)O)C(=O)O`, the T/C (endpoint: mean survival time, dose: 50.0 mg/kg/injection, schedule: Q04DX003 (ip), vehicle: saline) is reported as 97 % of control, the T/C [6] is reported as 94 % of control and the T/C [7] is reported as 100 % of control.

In the case of `CCOC(=O)C(=O)C(C#N)c1ccccc1` (configuration not stated), the T/C (endpoint: mean survival time, dose: 25.0 mg/kg/injection, schedule: Q01DX001 (ip), vehicle: Klucel (hydroxypropylcellulose) (HPC)) is reported as 92 % of control, the T/C (endpoint: mean survival time, dose: 50.0 mg/kg/injection, schedule: Q01DX001 (ip), vehicle: Klucel (hydroxypropylcellulose) (HPC)) is reported as 100 % of control and the T/C (endpoint: mean survival time, dose: 100.0 mg/kg/injection, schedule: Q01DX001 (ip), vehicle: Klucel (hydroxypropylcellulose) (HPC)) is reported as 100 % of control and 106 % of control.

In the case of `C=C1C(=O)OCC2(CC)CCCCC12` (configuration not stated), the T/C (endpoint: mean survival time, dose: 5.0 mg/kg/injection, schedule: Q01DX009 (ip), vehicle: water) is reported as 94 % of control, the T/C (endpoint: mean survival time, dose: 10.0 mg/kg/injection, schedule: Q01DX009 (ip), vehicle: water) is reported as 88 % of control and the T/C (endpoint: mean survival time, dose: 20.0 mg/kg/injection, schedule: Q01DX009 (ip), vehicle: water) is reported as 96 % of control.

`COC1=C(OC)C(=O)C(C/C=C(\C)CC/C=C(\C)CC/C=C(\C)CC/C=C(\C)CC/C=C(\C)CC/C=C(\C)CC/C=C(\C)CC/C=C(\C)CC/C=C(\C)CCC=C(C)C)=C(C)C1=O` was tested, and the T/C (endpoint: mean survival time, dose: 6.25 mg/kg/injection, schedule: Q01DX009 (ip), vehicle: saline with Tween-80) was 116 % of control and 97 % of control, the T/C [8] was 98 % of control and 100 % of control and the T/C [9] was 94 % of control and 100 % of control. For the same compound, the T/C [10] was 97 % of control and 106 % of control, the T/C [1] was 96 % of control and the T/C [11] was 94 % of control and 102 % of control. For the same compound, the T/C [2] was 92 % of control, the T/C [12] was 97 % of control and 100 % of control and the T/C (endpoint: mean survival time, dose: 400.0 mg/kg/injection, schedule: Q01DX001 (ip), vehicle: saline) was 94 % of control.

`O=C(CNC(=O)Nc1cccc(C(F)(F)F)c1)N/N=C/c1ccccc1Cl` was tested, and the T/C [8] was 87 % of control, the T/C [9] was 87 % of control and the T/C [10] was 87 % of control and 96 % of control. For the same compound, the T/C [11] was 103 % of control and the T/C [12] was 100 % of control.

`C[Si](O)(O)CCCCNC(=O)/C=C\C(=O)O` was tested, and the T/C (endpoint: mean survival time, dose: 100.0 mg/kg/injection, schedule: Q04DX003 (ip), vehicle: other) was 89 % of control, the T/C (endpoint: mean survival time, dose: 200.0 mg/kg/injection, schedule: Q04DX003 (ip), vehicle: other) was 93 % of control and the T/C (endpoint: mean survival time, dose: 400.0 mg/kg/injection, schedule: Q04DX003 (ip), vehicle: other) was 89 % of control.

`CCCNC(=O)Oc1c(C(C)C)ccc(C)c1Cl` was tested, and the T/C [6] was 98 % of control, the T/C [7] was 101 % of control and the T/C (endpoint: mean survival time, dose: 400.0 mg/kg/injection, schedule: Q04DX003 (ip), vehicle: saline) was 95 % of control.

`O=C(c1ccccc1)N(N=C(c1ccc([N+](=O)[O-])cc1)c1ccc([N+](=O)[O-])cc1)c1ccccc1` was tested, and the T/C [3] was 93 % of control and the T/C [5] was 87 % of control.

`CN(Cc1cnc2nc(N)nc(N)c2n1)c1ccc(C(=O)NC(CCC(=O)NC(CCC(=O)NC(CCC(=O)O)C(=O)O)C(=O)O)C(=O)O)cc1` (configuration not stated) was tested, and the T/C (endpoint: mean survival time, dose: 0.5 mg/kg/injection, schedule: Q01DX005 (ip), vehicle: sodium bicarbonate) was 98 % of control, the T/C (endpoint: mean survival time, dose: 1.0 mg/kg/injection, schedule: Q01DX005 (ip), vehicle: sodium bicarbonate) was 111 % of control and 112 % of control and the T/C (endpoint: mean survival time, dose: 2.0 mg/kg/injection, schedule: Q01DX005 (ip), vehicle: sodium bicarbonate) was 114 % of control and 121 % of control. The T/C (endpoint: mean survival time, dose: 8.0 mg/kg/injection, schedule: Q01DX005 (ip), vehicle: sodium bicarbonate) was 152 % of control and 153 % of control and the T/C (endpoint: mean survival time, dose: 16.0 mg/kg/injection, schedule: Q01DX005 (ip), vehicle: sodium bicarbonate) was 158 % of control.
